In publication PMC7679302 (Environmental Science and Pollution Research International, 2020):
Marks after values point to notes of the source that are not given here.

Legend:
[1] = system: Japanese medaka (Oryzias latipes); set-up: method as in Lalone et al. [2013]; conditions: 21-day exposure; ref Lalone et al. [2013]; cited from earlier work
[2] = system: fathead minnow (Pimephales promelas); set-up: method as in Lalone et al. [2013]; conditions: 21-day exposure; ref Lalone et al. [2013]; cited from earlier work
Daphnia magna [3] = system: Daphnia magna; set-up: method as in Lalone et al. [2013]; conditions: 21-day exposure to as much as 500 μg/L; ref Lalone et al. [2013]; cited from earlier work
[4] = Acute 48 h aqueous toxicity test with glochidia (viability); assay type: in vivo, Lampsilis siliquoidea; conditions: Lampsilis siliquoidea, in vivo
Text: (§1) Aqueous acute toxicity tests were based on the American Society for Testing and Materials (ASTM [2013]) protocols for conducting toxicity tests with early life stages of freshwater mussels. Gravid female L. siliquoidea were collected from an established reference site in the Maitland River (ON) and kept in ECCC’s Aquatic Life Research Facility (Canada Centre for Inland Waters, Burlington, ON). Glochidia were removed from gravid females and their viability (i.e., ability to close their valves) was assessed. Glochidia from a minimum of three gravid mussels whose glochidia exceeded 90% viability were pooled and exposed to a geometric series of nominal concentrations (0, 0.0025, 0.025, 0.25, 2.5, 25 mg/L) of either FIN or MGA plus a solvent control. Tests were conducted in 250-mL glass beakers (unaerated and unfed) with culture water. After 24 and 48 h of exposure, glochidia viability was assessed in a minimum of 100 glochidia per replicate (four replicates). Water samples were collected at the beginning and end of the tests, and frozen pending chemical analysis.

[5] = system: Lampsilis siliquoidea glochidia; assay: as above; assay type: in vivo; conditions: Lampsilis siliquoidea, in vivo, 48 h
Text: as §1

[6] = system: juvenile Lampsilis siliquoidea; assay: Chronic 28-day spiked sediment test with juvenile mussels (survival, burial ability); conditions: for Burial ability (percent of surviving mussels), mean (SEM) / Survival (percent of initial animals added), mean (SEM): n = 5
Text: Freshwater mussels (L. siliquoidea, 6–8 months old, ~ 1 cm in length) were purchased from Missouri State University (Springfield, MO, USA).

amphipod Hyalella azteca = assay: Chronic 42-day sediment test with amphipods (survival, growth, reproduction, sex ratio); conditions: for Females (percent of surviving amphipods), mean (SEM) / Survival (percent of initial animals added), mean (SEM): n = 10
Description: Dechlorinated municipal tap water was used for cultures and toxicity tests. Both cultures and toxicity tests were held at 25 °C with a photoperiod of 16 h light:8 h dark, and amphipods were fed finely ground Tetra-Min fish food flakes (Tetra GMBH, Melle, Germany). Juvenile amphipods were removed weekly from breeding containers and used in toxicity tests.
Two tests were conducted for each compound. Amphipods were fed ground Tetra-Min twice per week during weeks 1 and 2, three times during week 3, and 5 mg three times per week during weeks 4 to 6. Surviving adults were counted, weighed as a group, and examined under a dissecting microscope to identify males (enlarged second gnathopods) and females, and the number of juveniles was recorded.

[7] = system: juvenile mussels L. siliquoidea; assay: 21 d range-finding sediment test, juvenile mussels; assay type: in vivo; conditions: n = 3
Description: (§2) Range-finding tests of 21 d were completed with juvenile mussels, amphipods and mayflies to assist with the selection of the concentrations to be used in final testing. Nominal concentrations in range-finding tests were 0.1, 1, 10, 100, and 1000 mg/kg, based on dry weight of sediment. Range-finding test conditions were identical to those described in the manuscript for chronic sediment tests with the exception of test duration.
After 21 d, mussels were recovered and transferred to Petri dishes filled with clean sand and housed in large trays of aerated culture water to assess burial ability.

amphipods H. azteca = assay: 21 d range-finding sediment test, amphipods; assay type: in vivo, Hyalella azteca; conditions: n = 3
Description: as §2
Amphipods were fed 2.5 mg Tetra-min twice per week during weeks one and two, and three times during week three. At the end of the test, amphipods were removed and the survivors were counted and weighed.

mayflies Hexagenia spp. = assay: 21 d range-finding sediment test, mayflies; assay type: in vivo; conditions: n = 3
Description: as §2
At the end of the test, survival and wet weight of mayflies in each replicate were recorded.

mayfly Hexagenia spp. [8] = conditions: Hexagenia spp. (mixture of H. rigida and H. limbata), in vivo, 42 days, pH 8.3
Description: (§3) Nominal concentrations were 10, 30, 100, 300, and 1000 mg/kg for juvenile freshwater mussels and 3, 10, 30, 100, and 300 mg/kg for amphipods and mayflies, and were based on the results of range-finding tests (detailed in Supplementary Materials). […] For each PPCP, the concentration of solvent used was consistent across treatments.
(§4) The sediments were mixed for 24 h, left open in a fume hood for 3–5 days for the acetone to evaporate, and then stored at 4 °C until use. […] All beakers were aerated for 1 week under testing conditions prior to the addition of organisms, and throughout the tests. Duration of toxicity tests varied depending on the species and endpoint of interest (see below). Water quality parameters were collected for each test (Table S1).
(§5) Briefly, eggs of Hexagenia spp. […] Prior to testing, eggs were hatched and nymphs were grown in aerated 20-L aquaria containing culture sediment (depth: 2.5 cm) and culture water (depth: 10 cm) for 6 to 7 weeks.
(§6) Ten mayflies (5–8 mg wet weight) were added to each beaker (three replicates for each control and PPCP concentration). Two tests were conducted for each compound. […] At the end of the test, mayflies were removed and surviving animals from each of the three replicates were counted and weighed.

[9] = system: rainbow trout (Oncorhynchus mykiss); conditions: ref FDA-CDER [1996]; cited from earlier work
Daphnia magna [10] = conditions: ref FDA-CDER [1996]; cited from earlier work
mayfly Hexagenia spp. [11] = assay: Chronic 42-day sediment test with mayflies (survival, growth); conditions: measured, n = 6
Description: as §3, §4, §5, §6

[12] = finasteride 4 mg/kg dw sediment (0.03 mg/L water), measured
[13] = finasteride 11 mg/kg dw sediment (0.1 mg/L water), measured
[14] = finasteride 35 mg/kg dw sediment (0.5 mg/L water), measured
[15] = finasteride 96 mg/kg dw sediment (2 mg/L water), measured
[16] = finasteride 430 mg/kg dw sediment (20 mg/L water), measured
[17] = survival, dry weight sediment, measured
[18] = survival, overlying water, measured
[19] = finasteride 1 mg/kg dw sediment (0.003 mg/L water), measured, 42-day
[20] = finasteride 4 mg/kg dw sediment (0.03 mg/L water), measured, 42-day
[21] = finasteride 11 mg/kg dw sediment (0.1 mg/L water), measured, 42-day
[22] = finasteride 35 mg/kg dw sediment (0.5 mg/L water), measured, 42-day
[23] = finasteride 96 mg/kg dw sediment (2 mg/L water), measured, 42-day
[24] = survival, growth, 42-day, dry weight sediment, measured

CC(=O)S[C@@H]1CC2=CC(=O)CC[C@]2(C)[C@H]2CC[C@@]3(C)[C@@H](CC[C@@]34CCC(=O)O4)[C@H]12 [spironolactone]
Concentration that reduced fecundity [1]: 50 ng/mL | Concentration that reduced fecundity [2]: 50 ng/mL | Effect on reproduction (Daphnia magna [3]): no effect

CC(C)(C)NC(=O)[C@H]1CC[C@H]2[C@@H]3CC[C@H]4NC(=O)C=C[C@]4(C)[C@H]3CC[C@]12C [Finasteride]
viability at 48 h, 0.003 mg/L [4]: 90% | viability at 48 h, 0.03 mg/L [4]: 87% | viability at 48 h, 0.3 mg/L [4]: 87% | viability at 48 h, 2.5 mg/L [4]: 88% | viability at 48 h, 23 mg/L [4]: 85% | ChV (geometric mean of NOEC and LOEC) [5]: 7.6 mg/L | LOEC [5]: 23 mg/L^a | NOEC [5]: 2.5 mg/L | Burial ability (percent of surviving mussels), mean (SEM) [6, 12]: 90 (5.5) % | Survival (percent of initial animals added), mean (SEM) [6, 12]: 94 (2.4) % | Burial ability (percent of surviving mussels), mean (SEM) [6, 13]: 98 (2.0) % | Survival (percent of initial animals added), mean (SEM) [6, 13]: 94 (4.0) % | Burial ability (percent of surviving mussels), mean (SEM) [6, 14]: 88 (4.0) % | Survival (percent of initial animals added), mean (SEM) [6, 14]: 98 (2.0) % | Burial ability (percent of surviving mussels), mean (SEM) [6, 15]: 82 (5.5) % | Survival (percent of initial animals added), mean (SEM) [6, 15]: 72 (8.6)^d % | Burial ability (percent of surviving mussels), mean (SEM) [6, 16]: 0 (0)^d % | Survival (percent of initial animals added), mean (SEM) [6, 16]: 10 (5.5)^d % | Overlying water concentration at which both survival and burial ability were reduced ([6]; measured): 20 mg/L | Sediment concentration at which both survival and burial ability were reduced ([6]; measured): 430 mg/kg | ChV, sediment ([6]; survival, dry weight sediment): 58 mg/kg | LOEC, sediment [6, 17]: 96 mg/kg | NOEC, sediment [6, 17]: 35 mg/kg | ChV, overlying water ([6]; survival, overlying water): 1 mg/L | LOEC, overlying water [6, 18]: 2 mg/L | NOEC, overlying water [6, 18]: 0.5 mg/L | Survival, % of pooled controls (amphipod Hyalella azteca; 96 mg/kg (2 mg/L) FIN, 42-day): 65% | NOEC, overlying water (amphipod Hyalella azteca; Hyalella azteca, in vivo, 42 days, pH 8.3): 0.5 mg/L | Females (percent of surviving amphipods), mean (SEM) (amphipod Hyalella azteca; [19]): 57 (4.2) % | Survival (percent of initial animals added), mean (SEM) (amphipod Hyalella azteca; [19]): 96 (1.4) % | Females (percent of surviving amphipods), mean (SEM) (amphipod Hyalella azteca; [20]): 53 (3.0) % | Survival (percent of initial animals added), mean (SEM) (amphipod Hyalella azteca; [20]): 93 (1.7) % | Females (percent of surviving amphipods), mean (SEM) (amphipod Hyalella azteca; [21]): 50 (4.4) % | Survival (percent of initial animals added), mean (SEM) (amphipod Hyalella azteca; [21]): 94 (1.7) % | Females (percent of surviving amphipods), mean (SEM) (amphipod Hyalella azteca; [22]): 52 (2.7) % | Survival (percent of initial animals added), mean (SEM) (amphipod Hyalella azteca; [22]): 92 (2.0) % | Females (percent of surviving amphipods), mean (SEM) (amphipod Hyalella azteca; [23]): 69 (4.4)^d % | Survival (percent of initial animals added), mean (SEM) (amphipod Hyalella azteca; [23]): 63 (8.3)^d % | ChV, sediment (amphipod Hyalella azteca; survival, growth, 42-day, dry weight sediment): 58 mg/kg | LOEC, sediment (amphipod Hyalella azteca; [24]): 96 mg/kg | NOEC, sediment (amphipod Hyalella azteca; [24]): 35 mg/kg | ChV, overlying water (amphipod Hyalella azteca; survival, growth, 42-day, overlying water): 1 mg/L | LOEC, overlying water (amphipod Hyalella azteca; survival, growth, 42-day, overlying water, measured): 2 mg/L | Burial (%), mean (SEM) ([7]; 0.1 mg/kg dry weight nominal): 72 (6.3) % | Survival (%), mean (SEM) ([7]; 0.1 mg/kg dry weight nominal): 100 (0.0) % | Burial (%), mean (SEM) ([7]; 1 mg/kg dry weight nominal): 93 (3.3) % | Survival (%), mean (SEM) ([7]; 1 mg/kg dry weight nominal): 100 (0.0) % | Burial (%), mean (SEM) ([7]; 10 mg/kg dry weight nominal): 87 (6.7) % | Survival (%), mean (SEM) ([7]; 10 mg/kg dry weight nominal): 100 (0.0) % | Burial (%), mean (SEM) ([7]; 100 mg/kg dry weight nominal): 90 (0.0) % | Survival (%), mean (SEM) ([7]; 100 mg/kg dry weight nominal): 100 (0.0) % | Burial (%), mean (SEM) ([7]; 1000 mg/kg dry weight nominal): 77 (5.1) % | Survival (%), mean (SEM) ([7]; 1000 mg/kg dry weight nominal): 53 (6.7)^a % | Growth, mean (SEM) (amphipods H. azteca; 0.1 mg/kg dry weight nominal): 1.1 (0.12) mg wet weight | Survival (%), mean (SEM) (amphipods H. azteca; 0.1 mg/kg dry weight nominal): 100 (0.0) % | Growth, mean (SEM) (amphipods H. azteca; 1 mg/kg dry weight nominal): 1.1 (0.04) mg wet weight | Survival (%), mean (SEM) (amphipods H. azteca; 1 mg/kg dry weight nominal): 100 (0.0) % | Growth, mean (SEM) (amphipods H. azteca; 10 mg/kg dry weight nominal): 1.2 (0.05) mg wet weight | Survival (%), mean (SEM) (amphipods H. azteca; 10 mg/kg dry weight nominal): 100 (0.0) % | Growth, mean (SEM) (amphipods H. azteca; 100 mg/kg dry weight nominal): 0.79 (0.06) mg wet weight | Survival (%), mean (SEM) (amphipods H. azteca; 100 mg/kg dry weight nominal): 100 (0.0) % | Survival (%), mean (SEM) (amphipods H. azteca; 1000 mg/kg dry weight nominal): 0^a (0.0) % | Growth, mean (SEM) (mayflies Hexagenia spp.; 0.1 mg/kg dry weight nominal): 30 (0.5) mg wet weight | Survival (%), mean (SEM) (mayflies Hexagenia spp.; 0.1 mg/kg dry weight nominal): 100 (0.0) % | Growth, mean (SEM) (mayflies Hexagenia spp.; 1 mg/kg dry weight nominal): 30 (0.6) mg wet weight | Survival (%), mean (SEM) (mayflies Hexagenia spp.; 1 mg/kg dry weight nominal): 100 (0.0) % | Growth, mean (SEM) (mayflies Hexagenia spp.; 10 mg/kg dry weight nominal): 31 (0.3) mg wet weight | Survival (%), mean (SEM) (mayflies Hexagenia spp.; 10 mg/kg dry weight nominal): 100 (0.0) % | Growth, mean (SEM) (mayflies Hexagenia spp.; 100 mg/kg dry weight nominal): 29 (1.3) mg wet weight | Survival (%), mean (SEM) (mayflies Hexagenia spp.; 100 mg/kg dry weight nominal): 93 (3.3)^a % | Growth, mean (SEM) (mayflies Hexagenia spp.; 1000 mg/kg dry weight nominal): 4.5^a,^d (0.0) mg wet weight | Survival (%), mean (SEM) (mayflies Hexagenia spp.; 1000 mg/kg dry weight nominal): 3.3^a (3.3) % | ChV, overlying water (mayfly Hexagenia spp. [8]): 1 mg/L | LOEC, overlying water (mayfly Hexagenia spp. [8]): 2 mg/L | LOEC, sediment (mayfly Hexagenia spp. [8]): 96 mg/kg | NOEC, overlying water (mayfly Hexagenia spp. [8]): 0.5 mg/L | NOEC, sediment (mayfly Hexagenia spp. [8]): 35 mg/kg | 96-h LC50 [9]: 20 µg/mL | 96-h LC50 (Daphnia magna [10]): 21 µg/mL | Survival (percent of initial animals added), mean (SEM) (mayfly Hexagenia spp. [11]; finasteride 1 mg/kg dw sediment (0.003 mg/L water)): 98 (1.7) % | Survival (percent of initial animals added), mean (SEM) (mayfly Hexagenia spp. [11]; finasteride 4 mg/kg dw sediment (0.03 mg/L water)): 97 (2.1) % | Survival (percent of initial animals added), mean (SEM) (mayfly Hexagenia spp. [11]; finasteride 11 mg/kg dw sediment (0.1 mg/L water)): 100 (0.0) % | Survival (percent of initial animals added), mean (SEM) (mayfly Hexagenia spp. [11]; finasteride 35 mg/kg dw sediment (0.5 mg/L water)): 90 (2.6)^d,i % | Survival (percent of initial animals added), mean (SEM) (mayfly Hexagenia spp. [11]; finasteride 96 mg/kg dw sediment (2 mg/L water)): 97 (2.1) %
